Measurements from patent US4703061A, “Gamma-aminobutyric acid derivatives, process for production thereof, and use thereof as medicaments” (priority 1984, dated 1987).
Structures can show the parent of a compound that is named as a salt.

Experiments:
[1] = tested on: planar locomotor activity of mice; assay: Effects on planar locomotor activity, automex method; type: in vivo, ddY-strain male mice
Experimental: In Tests 1 to 4 given below, ddY-strain male mice (body weight 20-25 g) were used, and the experiments were carried out in a semi-soundproof, constant-temperature room kept at a temperature of 23±1° C. and a humidity of 55±2%. The mice were allowed to take feed and water freely.
The effects of the test compound on planar locomotor activity of the mice were examined by using an automex activity meter (made by Columbus Company). […] The test compound was intraperitoneally administered to the mice in doses indicated. Immediately then, five mice were put into each of transparent plastic cages (27×17×17 cm), and placed on the automex activity meter. The motor activity for 30 minutes was measured at 5 minutes intervals, and compared with that of the control group.

[2] = tested on: electric convulsive shock-induced amnesia model; assay: Effects on ECS-induced amnesia (step-down retention test); type: in vivo, ddY-strain male mice; settings: for Escape learning latency (mean ± S.E.) / Step-down latency (mean ± S.E.): ECS 300 V, retention test 24 hours
Experimental: The test animals used were ddY-strain male mice (body weight 30-35 g). The experiment was carried out indoors at about 20° C., and the mice were allowed to take feed and water freely. 2. Effects on memorized behaviors A device comprised of a floor grid surrounded on four sides by acrylic glass walls each having a lateral dimension of 21 cm and a wooden platform, 4×4×4 cm in size, fixed centrally to the floor grid was placed in a wooden semi-soundproof box having a size of 21×21×40 cm with a […] electric bulb suspended from its ceiling. The floor grid consisted of stainless steel rods, 3 mm in diameter, arranged at intervals of 8 mm. An intermittent electric shock (1 Hz, 0.5 sec., 60 V DC) was applied to the grid by an electric impulse apparatus and an isolator. A mouse was placed in a predetermined direction on the platform. Immediately after the mouse stepped down onto the floor grid (when the mouse's four limbs left the platform), an electric shock was applied to the floor grid, and the intermittent application of the electric shock was continued until the mouse climbed up the platform to escape from the electric shock. The time which elapsed until the mouse stepped down from the platform (SDL, step down latency) and the time which elapsed until the mouse escaped to the platform from the electric shock (ELL, escape learning latency) were measured. […] By the same procedure as in the training test, a mouse was placed on the platform, and its step down latency (SDL) was measured. The cut-off time was 300 seconds. After the mouse stepped down, or the cut-off time elapsed, the mouse was placed on the floor grid at a corner of the device with its head directed in a direction opposite to the platform. An electric shock was applied to the mouse and its escape learning latency (ELL) was measured. Mice divided into groups each consisting of not less than 15 mice were subjected to the training test, and immediately then, ECS (300 V DC, 0.5 sec.) was applied to the mice through both ears. Twenty-four hours later, the mice were subjected to the retention test. Immediately after administration of CXM or application of ECS, a 0.9% normal saline solution of each of the test compounds was intraperitoneally administered to the mice. Separately, a 5% gum arabic solution of CXM was administered to the mice in a control group. […] But the mice recovered 1 to 2 minutes later.

ddY-strain male mice = assay: Irwin's observation method (behavior, nervous, autonomic nervous and toxic symptoms); type: in vivo; settings: 1,000 mg/kg or below, i.p.; vs control group
Description: These mice were also observed for changes in behavior, nervous symptoms, autonomic nervous symptoms, and toxic symptoms in accordance with the Irwin's observation method.

CC(O)(CCO)CC(=O)NCCCC(=O)O (stereo not drawn) [MV-GABA-Ca salt, calcium 4-(3,5-dihydroxy-3-methylpentylamide) butyrate]
Motor activity (total number of counts) ([1]; 500 mg/kg i.p., 5 minutes): 172 counts | Motor activity (total number of counts) ([1]; 500 mg/kg i.p., 10 minutes): 241 counts | Motor activity (total number of counts) ([1]; 500 mg/kg i.p., 15 minutes): 307 counts | Motor activity (total number of counts) ([1]; 500 mg/kg i.p., 20 minutes): 405 counts | Motor activity (total number of counts) ([1]; 500 mg/kg i.p., 25 minutes): 505 counts | Motor activity (total number of counts) ([1]; 500 mg/kg i.p., 30 minutes): 558 counts | Motor activity (total number of counts) ([1]; 1000 mg/kg i.p., 5 minutes): 91 counts | Motor activity (total number of counts) ([1]; 1000 mg/kg i.p., 10 minutes): 128 counts | Motor activity (total number of counts) ([1]; 1000 mg/kg i.p., 15 minutes): 156 counts | Motor activity (total number of counts) ([1]; 1000 mg/kg i.p., 20 minutes): 177 counts | Motor activity (total number of counts) ([1]; 1000 mg/kg i.p., 25 minutes): 189 counts | Motor activity (total number of counts) ([1]; 1000 mg/kg i.p., 30 minutes): 203 counts | Escape learning latency (mean ± S.E.) ([2]; 250 mg/kg i.p.): 12.8 ± 1.6 s | Step-down latency (mean ± S.E.) ([2]; 250 mg/kg i.p.): 104.6 ± 17.7 s | Escape learning latency (mean ± S.E.) ([2]; 500 mg/kg i.p.): 8.0 ± 1.1 s | Step-down latency (mean ± S.E.) ([2]; 500 mg/kg i.p.): 158.5 ± 21.7 s | prolongation of ELL (ECS) ([2]; 500 mg/kg, result in words): significantly improved the prolongation of ELL | Escape learning latency (mean ± S.E.) ([2]; 750 mg/kg i.p.): 6.7 ± 0.7 s | Step-down latency (mean ± S.E.) ([2]; 750 mg/kg i.p.): 215.2 ± 15.9 s | shortening of SDL and prolongation of ELL (ECS) ([2]; 750 mg/kg, result in words): significantly improved shortening of SDL and also the prolongation of ELL | changes in behavior, nervous symptoms, autonomic nervous symptoms, and toxic symptoms (ddY-strain male mice): no marked difference from the control group could be found
